US20020077365A1, “Method for increasing the effectiveness of antiinfective” (The University of Texas System, priority 2000, published 2002)
Like-named read-outs stand apart in the source and are kept apart here.

Assays:
[1] = system: Arabidopsis thaliana plants (wild-type and AtPGP-1 overexpressing); assay type: in vivo; conditions: for germination: phosphatase inhibitor 1 mM plus cycloheximide 500 ng/ml; for germination rate: substance alone (cycloheximide 500 ng/ml or phosphatase inhibitor 1 mM), after 10-20 days
Procedure: Plant Growth: Arabidopsis seeds were sown in a solid germination media containing MS salts (Sigma Chemical, St. Louis, Mo.), 2% sucrose, 0.8% agar, and vitamins (Valvekens et al., 1992). For selection assays, one of the following, or a combination of both, was added to media (cooled to less than 50° C. before adding) immediately prior to pouring into plates: cycloheximide at a final concentration of 500 ng/ml; α,β-methyleneadenosine 5′-diphosphate at a final concentration of 1 mM. Plant growth was measured by germination percentage after 10-20 days. All other materials and methods were discussed above in Example 2.

[2] = system: S. cerevisiae yeast cells (YMR4 and INVSC, with or without AtPGP-1); experiment: Yeast growth in suspension with extracellular ATP, adenosine, phosphate and cycloheximide (turbidity OD600); assay type: cell-based; conditions: for effect on resistance to cycloheximide: YMR4 cells, added to media with cycloheximide, 72 hours, FIG. 14; for yeast growth in high levels of ATP: 100 mM ATP, FIG. 13
Procedure: Cell lines: Cell lines were the same as those described above in Example 2 and 3. YMR4 MDR1 is the phosphatase mutant yeast strain overexpressing AtPGP-1; YMR4 pVT11 contains vector alone; INVSC MDR1 is the wild-type yeast strain overexpressing AtPGP-1; and INVSC pVT101 contains vector alone.
Selection in drug: To create drug resistant yeast strains, all four cell lines were grown up in the presence of 500 ng/ml of cycloheximide, and transferred to other cycloheximide containing plates after a period of four to six days. This transfer of cell lines and subculturing continued such that the yeast cells grew in the presence of cycloheximide for a period of at least a month.
Growth of cells in suspension for ATP and drug selection experiments: Cells were transferred into 5 ml YNB -URA liquid media for turbidity measurements. All cell lines (both non-drug selected and drug-selected) were grown in media with the addition of either nothing, 500 ng/ml cycloheximide, 100 mM ATP, or 500 ng/ml cycloheximide and 100 mM ATP. Turbidity readings were taken after 48 hours.
Growth of cell lines in suspension for salvage pathway experiments: All cell lines were grown in liquid media either containing drug (for the drug selected lines) or not containing drug (for the non-drug selected lines). When the cultures reached a turbidity of 1.00 as measured at a wavelength of 600 in a spectrophotometer (OD600=1.00), 10 μl of each culture was then removed and placed in either media with nothing added, 3 mM potassium phosphate; 3 mM adenosine; 9 mM potassium phosphate and 3 mM adenosine (for controls); potassium phosphate and cycloheximide; adenosine and cycloheximide; adenosine, cycloheximide, and potassium phosphate. Cell cultures were further grown for 72 hours, and their turbidity was determined by OD600 readings on a spectrophotometer.

[3] = system: Saccharomyces cerevisiae INVSC1 and YMR4; experiment: Yeast growth selection in drug (plates / liquid turbidity); assay type: cell-based
From the text: Expression of AtPGP-1 in yeast: The AtPGP-1 cDNA (Arabidopsis thaliana MDR gene, accession #X61370) was subdloned into pVT101 downstream of the ADH promoter to create the AtPGP-1/pVT101 construct. AtPGP-1/pVT101 and pVT101 were transformed into Saccharomyces cerevisiae INVSC1 (genotype: MAT, his3-1, leu2, trp1-289, ura3-52) and YMR4 (genotype: MAThis3-11,15, leu2-3, 112ura35, can Res pho5, 3::ura31) by a PEG lithium acetate procedure (Eble, 1992) and selected on uracil dropout medium.
Yeast Growth: Yeast were grown at 30° C. under conditions of constant selection for uracil auxotrophy. YNB (Bio101, Vista, Calif.) supplemented with CSM (uracil dropout) and 2% glucose was used to grow strains having pVT101 constructs. Cycloheximide (Sigma Chemical, St. Louis, Mo.) was added to liquid media or spread on solid media to achieve a final concentration of 500 ng/ml. Nigericin (Sigma Chemical, St. Louis, Mo.) was added to liquid media or spread on solid media to achieve a final concentration of 25 μg/ml. Yeast strains used in cycloheximide selection assays were always propagated in the presence of the cycloheximide on plates and then streaked onto new plates containing drug or no drug, such that induced resistance existed in each strain at the time of the start of the assay. For selection assays on plates, single colonies were streaked; for selection in liquid media 0.01 ml of saturated culture was added to fresh media containing the drug. The plates shown in figures were grown for 3-5 days before photographs were taken. Yeast selection assays in liquid media were quantitated by turbidity as measured by absorbance at OD600.
The same result was obtained when the yeast strains were cultured in nigericin (FIG. 3C, FIG. 3D, FIG. 5B, FIG. 5C). In FIG. 3C and 3D, starting from the top of the dish clockwise, the cells are as follows: INVSC1 (wild-type) overexpressing AtPGP-1, YMk4 containing the vector alone, YMR4 overexpressing AtPGP-I, and INVSC1 containing the vector alone. When grown without drug, all the cells grow (FIG. 3C). […]

[4] = system: ecto-apyrase of plasma membrane of cholinergic nerve terminal of Torpedo marmorata electric organs; conditions: Marti et al., 1996; cited from earlier work
[5] = system: wild-type yeast strain INVSC with plasmid pvtl01-U; experiment: Yeast filter disk zone of inhibition with fungicide chlorothalonil with or without ecto-phosphatase inhibitor; assay type: cell-based, S. cerevisiae; conditions: plates without ecto-phosphatase inhibitor, 48 hours
Procedure: Increasing Yeast Sensitivity to Fungicide. Additional experiment were performed to test the ability of ecto-phosphatase inhibitors to increase the effectiveness of the commonly used fungicide chlorothalonil. Yeast was plated on media with or without an ecto-phosphatase inhibitor of Formula X where a paper filter disk soaked in the fungicide was added to the plate. After 48 hours, the zone of inhibition of yeast growth around the filter disk was calculated.
The wild-type yeast strain INVSC with plasmid pvtl01-U (for selection on media lacking uracil) was used in all experiments and each experiment was performed in triplicate. Media used was made by combining YNB (Bio 101, Vista, Calif.), the drop out supplement CSM-URA (Bio 101, Vista, CA), and glucose in water. […]
Twenty μl of an overnight saturated culture of yeast was plated onto each plate, spread, and allowed to dry for 20 minutes. […] The zone of inhibition of yeast growth around the disk was assessed after 48 hours.
Plates with chlorothalonil disks indeed contained a zone of inhibition surrounding the disk. […] The zone of inhibition was calculated by measuring the radius from the center of the disk to the point of noticeable yeast growth (at least 10 measurements per plate), averaging the radii measurements, and using the average radius of the plates to calculate the circular area of the zone of inhibition.

[6] = system: Arabidopsis thaliana WS wild-type plants; experiment: Plant sensitivity to herbicides with or without ecto-phosphatase inhibitor; assay type: in vivo; conditions: inhibitor 5 μg/ml; surflan solution 0.2-20 μl/ml in germination media
Procedure: Increasing Plant Sensitivity to Herbicides: Arabidopsis thaliana WS wild-type plants were plated on germination media containing two commonly used herbicides, surflan and pendimethalin, in the presence and absence of an ecto-phosphatase inhibitor of Formula II and monitored for their growth in a 22° C. incubator under constant fluorescent illumination.
More specifically, germination media was prepared containing 20 μl/ml, 10 μl/ml, 2 μl/ml, 1 μl/ml, and 0.2 μl/ml of a surflan solution made at the manufacturer's recommended concentration. Compound of Formula II was added to a portion of the germination media at a final concentration of 5 μg/ml.
Arabidopsis thahiana WS wild-type seeds were surface sterilized in a 20% bleach solution for 20 minutes, washed three times in double distilled waster, and resuspended in 0.1% agarose solution. The seeds were then pipetted onto plates containing approximately 3 ml of germination media containing the various concentrations of surflan with and without compound of Formula II. All plates were placed in a 22° C. incubator under constant fluorescent illumination. Growth was assessed daily.
Similar experiments were performed with pendimethalin in the presence and absence of compound of Formula II.

[7] = YMR4 (extracellular phosphatase deficient), vector alone, cycloheximide 500 ng/ml or nigericin 25 μg/ml

## Nc1ncnc2c1ncn2[C@@H]1O[C@H](COP(=O)(O)CP(=O)(O)O)[C@@H](O)[C@H]1O [α,β-methyleneadenosine 5′-diphosphate]
[1]; AtPGP-1 overexpressing plants
  germination: no germination at all
  germination rate: 83%
[1]; wild-type plants
  germination: no germination at all
  germination rate: 90%

## O=P(O)(O)O [phosphate, potassium phosphate]
[2]
  effect on resistance to cycloheximide: did not enhance resistance

## Nc1ncnc2c1ncn2[C@@H]1O[C@H](COP(=O)(O)OP(=O)(O)OP(=O)(O)O)[C@@H](O)[C@H]1O [ATP]
[2]; 100 mM ATP plus 500 ng/ml cycloheximide, cell lines previously resistant to drug
  yeast growth in high levels of ATP and drug: unable to grow
[2]; cells not previously selected in drug
  yeast growth in high levels of ATP: able to grow
[2]; cells previously grown in drug (cycloheximide-selected), not overexpressing AtPGP-1
  yeast growth in high levels of ATP: not able to grow

## C[C@@H]1C[C@@H]([C@H](O)CC2CC(=O)NC(=O)C2)C(=O)[C@@H](C)C1 [cycloheximide]
[1]; AtPGP-1 overexpressing plants
  germination rate: 50%
[1]; wild-type plants
  germination rate: 2%
[3]; [7]
  yeast growth in drug: did not grow
[3]; wild-type INVSC1, cycloheximide 500 ng/ml
  yeast growth in drug: did grow

## Cc1ccc(C(=O)Nc2ccc(S(=O)(=O)O)c3cc(S(=O)(=O)O)cc(S(=O)(=O)O)c23)cc1NC(=O)c1cccc(NC(=O)Nc2cccc(C(=O)Nc3cc(C(=O)Nc4ccc(S(=O)(=O)O)c5cc(S(=O)(=O)O)cc(S(=O)(=O)O)c45)ccc3C)c2)c1 [Suramin, 8,8′[Carbonylbis[imino-3,1-phenylenecarbonylimino(4-methyl-3,1-phenylene)carbonylimino]]bis-1,3,5-naphthalenetrisulfonic acid]
[4]
  inhibition of ecto-apyrase activity: potent non-competitive inhibitor

## CO[C@@H]1C[C@@H](C[C@H]2CC[C@H](C)[C@H]([C@@H](C)C(=O)O)O2)O[C@]2(O[C@](C)([C@H]3CC[C@@](C)([C@@H]4O[C@@H]([C@H]5O[C@@](O)(CO)[C@H](C)C[C@@H]5C)C[C@@H]4C)O3)C[C@H]2C)[C@@H]1C [nigericin]
[3]; [7]
  yeast growth in drug: reduced growth

## Nc1ncnc2c1ncn2[C@@H]1O[C@H](CO)[C@@H](O)[C@H]1O [adenosine]
[2]
  effect on resistance to cycloheximide: did not enhance resistance

## N#Cc1c(Cl)c(Cl)c(Cl)c(C#N)c1Cl [chlorothalonil]
[5]
  average radius of inhibition: 0.33 in.

## Cc1cccc(NS(=O)(=O)c2ccc(-c3ccccc3)cc2)c1 [Formula II]
[6]
  effectiveness of surflan as weed killer in presence of inhibitor: equally effective weed killer at a five fold less concentration
